Data taken from ChEMBL document CHEMBL4414598, “Trifluorinated Pyrimidine-Based A2B Antagonists: Optimization and Evidence of Stereospecific Recognition” (J Med Chem, 2019).

Assays:
[1] = target: T1, Adenosine receptor A3 (Homo sapiens) (UniProt P0DMS8); experiment: Displacement of [3H]NECA from human A3 receptor expressed in human HeLa cell membranes at 1 uM incubated for 180 mins by radioligand binding competition assay relative to control
T1 sequence (whole entry): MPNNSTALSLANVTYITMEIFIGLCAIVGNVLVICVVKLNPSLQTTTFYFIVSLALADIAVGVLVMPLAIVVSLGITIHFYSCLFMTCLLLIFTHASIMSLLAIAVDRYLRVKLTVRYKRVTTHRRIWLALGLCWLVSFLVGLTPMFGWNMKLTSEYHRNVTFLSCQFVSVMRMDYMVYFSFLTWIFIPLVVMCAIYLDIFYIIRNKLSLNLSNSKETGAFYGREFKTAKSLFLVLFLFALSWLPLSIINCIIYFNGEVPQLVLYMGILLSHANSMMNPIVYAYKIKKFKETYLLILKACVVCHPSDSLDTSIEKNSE

Adenosine receptor A2a [2] = target: T2, Adenosine receptor A2a (Homo sapiens, UniProt P29274); experiment: Displacement of [3H]ZM241385 from human recombinant A2A receptor expressed in human HeLa cell membranes at 1 uM incubated for 30 mins by radioligand binding competition assay relative to control
T2 sequence (P29274 whole entry): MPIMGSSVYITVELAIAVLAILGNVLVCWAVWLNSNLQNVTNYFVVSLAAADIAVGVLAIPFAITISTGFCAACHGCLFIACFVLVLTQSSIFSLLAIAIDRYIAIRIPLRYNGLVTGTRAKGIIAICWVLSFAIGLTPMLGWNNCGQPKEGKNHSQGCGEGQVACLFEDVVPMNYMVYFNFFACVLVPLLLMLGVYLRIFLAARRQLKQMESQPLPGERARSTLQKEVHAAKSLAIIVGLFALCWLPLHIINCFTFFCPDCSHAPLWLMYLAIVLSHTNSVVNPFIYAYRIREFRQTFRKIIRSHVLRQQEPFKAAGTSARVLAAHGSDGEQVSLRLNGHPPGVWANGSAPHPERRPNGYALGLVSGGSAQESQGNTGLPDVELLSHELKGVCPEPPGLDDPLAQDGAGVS

Adenosine receptor A2b = target: T3, Adenosine receptor A2b (Homo sapiens, UniProt P29275); experiment: Displacement of [3H]DPCPX from human recombinant A2B receptor expressed in human HEK293 cell membranes incubated for 30 mins by radioligand binding competition assay
T3 sequence (P29275 whole entry): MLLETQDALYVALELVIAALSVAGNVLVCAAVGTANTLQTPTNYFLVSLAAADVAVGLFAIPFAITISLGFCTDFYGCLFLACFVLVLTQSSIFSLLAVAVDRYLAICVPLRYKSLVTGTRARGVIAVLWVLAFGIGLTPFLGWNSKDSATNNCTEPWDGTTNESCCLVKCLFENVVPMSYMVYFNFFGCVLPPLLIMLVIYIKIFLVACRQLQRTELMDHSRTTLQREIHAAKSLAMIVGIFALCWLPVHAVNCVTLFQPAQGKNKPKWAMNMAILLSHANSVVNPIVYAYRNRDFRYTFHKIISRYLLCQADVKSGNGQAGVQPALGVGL

[3] = target: T4, Adenosine receptor A1 (Homo sapiens) (UniProt P30542); experiment: Displacement of [3H]DPCPX from human recombinant A1 receptor expressed in CHOA1 cell membranes at 1 uM incubated for 60 mins by radioligand binding competition assay relative to control
T4 sequence (whole entry): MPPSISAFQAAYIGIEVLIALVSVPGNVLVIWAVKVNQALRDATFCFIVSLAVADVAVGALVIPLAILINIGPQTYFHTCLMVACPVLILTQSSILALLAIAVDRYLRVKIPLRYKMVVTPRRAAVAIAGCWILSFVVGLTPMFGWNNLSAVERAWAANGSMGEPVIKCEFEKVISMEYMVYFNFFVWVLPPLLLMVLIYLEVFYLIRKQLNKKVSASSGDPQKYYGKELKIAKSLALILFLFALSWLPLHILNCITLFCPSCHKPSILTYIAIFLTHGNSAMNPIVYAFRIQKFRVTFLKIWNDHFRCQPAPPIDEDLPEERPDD

Homo sapiens [4] = species: Homo sapiens; experiment: Selectivity index, ratio of Ki for displacement of [3H]DPCPX from human recombinant A1 receptor expressed in CHOA1 cell membranes incubated for 60 mins by radioligand binding competition assay to Ki for displacement of [3H]DPCPX from human recombinant A2B receptor expressed in human HEK293 cell membranes at 1 uM incubated for 30 mins by radioligand binding competition assay
Homo sapiens [5] = species: Homo sapiens; experiment: (§1) Selectivity index, ratio of Ki for displacement of [3H]NECA from human A3 receptor expressed in human HeLa cell membranes incubated for 180 mins by radioligand binding competition assay to Ki for displacement of [3H]DPCPX from human recombinant A2B receptor expressed in human HEK293 cell membranes at 1 uM incubated for 30 mins by radioligand binding competition assay
Homo sapiens [6] = species: Homo sapiens; experiment: as §1, with “[3H]ZM241385” for “[3H]NECA”, “recombinant A2A” for “A3”, “30” for “180”
Adenosine receptor A1 = target: T5, Adenosine receptor A1 (Homo sapiens, UniProt P30542); experiment: Displacement of [3H]DPCPX from human recombinant A1 receptor expressed in CHOA1 cell membranes incubated for 60 mins by radioligand binding competition assay
T5 sequence (P30542 whole entry): T4 sequence (whole entry)

Adenosine receptor A2a [7] = target: T2, Adenosine receptor A2a; experiment: Displacement of [3H]ZM241385 from human recombinant A2A receptor expressed in human HeLa cell membranes incubated for 30 mins by radioligand binding competition assay
Adenosine receptor A3 = target: T6, Adenosine receptor A3 (Homo sapiens, UniProt P0DMS8); experiment: Displacement of [3H]NECA from human A3 receptor expressed in human HeLa cell membranes incubated for 180 mins by radioligand binding competition assay
T6 sequence (P0DMS8 whole entry): T1 sequence (whole entry)

| Structure (SMILES) | inhibition [1] [%] | inhibition (Adenosine receptor A2a [2]) [%] | Ki (Adenosine receptor A2b) [nM] | inhibition [3] [%] | Ki (Adenosine receptor A1) [nM] | Ki (Adenosine receptor A2a [7]) [nM] | Ki (Adenosine receptor A3) [nM] | Ratio Ki (Homo sapiens [4]) | Ratio Ki (Homo sapiens [5]) | Ratio Ki (Homo sapiens [6]) |
| --- | --- | --- | --- | --- | --- | --- | --- | --- | --- | --- |
| CC1=C(C(=O)OCC(F)(F)F)C(c2ccco2)NC(=O)N1 (racemic) | 1 | 1 | 157 | 10 | – | – | – | – | – | – |
| CC1=C(C(=O)OCC(F)(F)F)C(c2ccoc2)n2c(nc3ccccc32)N1 (racemic) | 1 | 11 | 42.1 | 14 | – | – | – | > 1000 | > 1000 | > 1000 |
| CC(C)OC(=O)C1=C(C(F)(F)F)NC(=O)NC1c1ccsc1 (racemic) | 3 | 9 | 651 | 23 | – | – | – | – | – | – |
| CC1=C(C(=O)O[C@@H](C)C(F)(F)F)C(c2ccco2)n2c(nc3ccccc32)N1 (mixture of isomers) | 7 | 1 | 15.1 | 26 | – | – | – | – | – | – |
| CC(C)OC(=O)C1=C(C(F)(F)F)NC(=O)NC1c1ccco1 (racemic) | 5 | 24 | 238 | 11 | – | – | – | – | – | – |
| CCOC(=O)C1=C(C(F)(F)F)Nc2nc3ccccc3n2C1c1ccco1 (racemic) | 20 | 4 | 731 | 11 | – | – | – | – | – | – |
| CC(C)OC(=O)C1=C(C(F)(F)F)Nc2nc3ccccc3n2C1c1ccoc1 (racemic) | 23 | 23 | 49.2 | 8 | – | – | – | > 1000 | > 1000 | > 1000 |
| CC1=C(C(=O)O[C@H](C)C(F)(F)F)C(c2ccco2)n2c(nc3ccccc32)N1 (mixture of isomers) | 23 | 11 | 17 | 12 | – | – | – | – | – | – |
| CC1=C(C(=O)OCC(F)(F)F)[C@@H](c2ccco2)n2c(nc3ccccc32)N1 | 7 | 1 | 11.2 | 9 | – | – | – | – | – | – |
| CCOC(=O)C1=C(C(F)(F)F)NC(=O)NC1c1ccsc1 (racemic) | 3 | 46 | 575 | 32 | – | – | – | – | – | – |
| CC1=C(C(=O)OC(C)C)C(c2ccco2)n2c(nc3ccccc32)N1 (stereo unspecified) | 2 | 28 | – | 20 | 20 | 28 | 2 | – | – | – |
| CCOC(=O)C1=C(C(F)(F)F)Nc2nc3ccccc3n2C1c1ccsc1 (racemic) | 29 | 13 | 118 | 16 | – | – | – | – | – | – |

Further lines, with some results ahead:

| inhibition [1] [%] | inhibition (Adenosine receptor A2a [2]) [%] | Ki (Adenosine receptor A2b) [nM] | inhibition [3] [%] | Ki (Adenosine receptor A1) [nM] | Ki (Adenosine receptor A2a [7]) [nM] | Ki (Adenosine receptor A3) [nM] | Structure (SMILES) | Ratio Ki (Homo sapiens [4]) | Ratio Ki (Homo sapiens [5]) | Ratio Ki (Homo sapiens [6]) |
| --- | --- | --- | --- | --- | --- | --- | --- | --- | --- | --- |
| 3 | 3 | 52.3 | 2 | – | – | – | CC1=C(C(=O)OC(C)C(F)(F)F)C(c2ccoc2)n2c(nc3ccccc32)N1 (racemic) | > 1000 | > 1000 | > 1000 |
| 3 | 9 | 13.7 | 11 | – | – | – | CCOC(=O)C1=C(C(F)(F)F)Nc2nc3ccccc3n2[C@@H]1c1ccoc1 | – | – | – |
| 18 | 4 | 29.6 | 3 | – | – | – | CC1=C(C(=O)OC(C)C(F)(F)F)C(c2ccco2)n2c(nc3ccccc32)N1 (racemic) | – | – | – |
| 1 | 55 | 521 | 37 | – | – | – | CCOC(=O)C1=C(C(F)(F)F)NC(=O)NC1c1ccoc1 (racemic) | – | – | – |
| 14 | 1 | 6.91 | 12 | – | – | – | CC1=C(C(=O)O[C@H](C)C(F)(F)F)[C@@H](c2ccco2)n2c(nc3ccccc32)N1 | – | – | – |
| 21 | 5 | 8.73 | 22 | – | – | – | CC1=C(C(=O)O[C@@H](C)C(F)(F)F)[C@@H](c2ccco2)n2c(nc3ccccc32)N1 | – | – | – |
| 23 | 7 | 27 | 16 | – | – | – | CC1=C(C(=O)OCC(F)(F)F)C(c2ccco2)n2c(nc3ccccc32)N1 (racemic) | – | – | – |
| 6 | 18 | 37.4 | 9 | – | – | – | CCOC(=O)C1=C(C(F)(F)F)Nc2nc3ccccc3n2C1c1ccoc1 (racemic) | – | – | – |
